Assay results taken from PubChem BioAssay AID2060894 (Molecular Pharmacology Branch, DTP, NCI, 2025).

System: K12877-001-R-J1-PDC complex spheroid viability
Experiment: Anticancer human tumor K12877-001-R-J1-PDC patient-derived lung adenocarcinoma cell line growth inhibition [RAS]
Details: for IC50: curve of first compound; for viability, T/C: stronger effect = lower value
Summary of the method: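 Multi-cell-type spheroids: tumor cells plus HUVEC endothelial cells and mesenchymal stem cells. RAS-pathway inhibitors were combined with targeted agents, each dosed in half-log steps down from clinical Cmax, or from 10 microM when Cmax was unknown.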

[1] = second compound 0.00316 µM, first compound 0.0316 µM
[2] = second compound 0.00316 µM, first compound 0.1 µM
[3] = second compound 0.01 µM, first compound 0.0316 µM
[4] = second compound 0.01 µM, first compound 0.1 µM
[5] = second compound 0.0316 µM, first compound 0.0316 µM
[6] = second compound 0.0316 µM, first compound 0.1 µM
[7] = second compound 0.1 µM, first compound 0.0316 µM
[8] = second compound 0.1 µM, first compound 0.1 µM
[9] = second compound 0.316 µM, first compound 0.0316 µM
[10] = second compound 0.316 µM, first compound 0.1 µM
[11] = second compound 1 µM, first compound 0.0316 µM
[12] = second compound 1 µM, first compound 0.1 µM
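Note: spheroids exposed to agents for one week before readout.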
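Throughout, for viability, T/C: tumour cells co-cultured with HUVEC and mesenchymal stem cells in spheroids.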

Compound CC(C)NCC(C(=O)N1CCN(c2ncnc3c2C(C)CC3O)CC1)c1ccc(Cl)cc1 (centres undefined) + C=CC(=O)N1CCN(c2nc(OCC3CCCN3C)nc3c(F)c(-c4nc(N)cc(C)c4C(F)(F)F)c(Cl)cc23)C(C)C1 has an IC50 (second compound 0.00316 µM) of 2.24 µM, an IC50 (second compound 0.01 µM) of 1.56 µM and an IC50 (second compound 0.0316 µM) of 1.4 µM. It also gave an IC50 (second compound 0.1 µM) of 1.42 µM, an IC50 (second compound 0.316 µM) of 0.934 µM and an IC50 (second compound 1 µM) of 1.54 µM. For the same compound, the viability, T/C [1] was 87.9%, the viability, T/C [2] was 86.1% and the viability, T/C (second compound 0.00316 µM, first compound 0.316 µM) was 74.5%. For the same compound, the viability, T/C (second compound 0.00316 µM, first compound 1 µM) was 78.4%, the viability, T/C (second compound 0.00316 µM, first compound 3.16 µM) was 38% and the viability, T/C (second compound 0.00316 µM, first compound 10 µM) was 22%. It also gave a viability, T/C [3] of 82.8%, a viability, T/C [4] of 89.2% and a viability, T/C (second compound 0.01 µM, first compound 0.316 µM) of 68.8%. The viability, T/C (second compound 0.01 µM, first compound 1 µM) was 65.8%, the viability, T/C (second compound 0.01 µM, first compound 3.16 µM) was 30.2% and the viability, T/C (second compound 0.01 µM, first compound 10 µM) was 18%. The viability, T/C [5] was 85.5%, the viability, T/C [6] was 90.6% and the viability, T/C (second compound 0.0316 µM, first compound 0.316 µM) was 73.3%. The viability, T/C (second compound 0.0316 µM, first compound 1 µM) was 63.3%, the viability, T/C (second compound 0.0316 µM, first compound 3.16 µM) was 23.7% and the viability, T/C (second compound 0.0316 µM, first compound 10 µM) was 17.6%. The viability, T/C [7] was 84%, the viability, T/C [8] was 71.5% and the viability, T/C (second compound 0.1 µM, first compound 0.316 µM) was 82.4%. It also gave a viability, T/C (second compound 0.1 µM, first compound 1 µM) of 63.2%, a viability, T/C (second compound 0.1 µM, first compound 3.16 µM) of 20.2% and a viability, T/C (second compound 0.1 µM, first compound 10 µM) of 16.7%. The viability, T/C [9] was 79.9%, the viability, T/C [10] was 79.9% and the viability, T/C (second compound 0.316 µM, first compound 0.316 µM) was 68.2%. For the same compound, the viability, T/C (second compound 0.316 µM, first compound 1 µM) was 51%, the viability, T/C (second compound 0.316 µM, first compound 3.16 µM) was 23.5% and the viability, T/C (second compound 0.316 µM, first compound 10 µM) was 19.5%. The viability, T/C [11] was 87.8%, the viability, T/C [12] was 75.7% and the viability, T/C (second compound 1 µM, first compound 0.316 µM) was 84.4%. For the same compound, the viability, T/C (second compound 1 µM, first compound 1 µM) was 58.6%, the viability, T/C (second compound 1 µM, first compound 3.16 µM) was 33.9% and the viability, T/C (second compound 1 µM, first compound 10 µM) was 20.9%.

CC(C)n1nc(-c2ccc3oc(N)nc3c2)c2c(N)ncnc21 + C=CC(=O)N1CCN(c2nc(OCC3CCCN3C)nc3c(F)c(-c4nc(N)cc(C)c4C(F)(F)F)c(Cl)cc23)C(C)C1 was tested, and the IC50 (second compound 0.00316 µM) was 0.0201 µM, the IC50 (second compound 0.01 µM) was 0.0204 µM and the IC50 (second compound 0.0316 µM) was 0.0174 µM. For the same compound, the IC50 (second compound 0.1 µM) was 0.0154 µM, the IC50 (second compound 0.316 µM) was 0.0142 µM and the IC50 (second compound 1 µM) was 0.0164 µM. For the same compound, the viability, T/C (second compound 0.00316 µM, first compound 0.000316 µM) was 97.8%, the viability, T/C (second compound 0.00316 µM, first compound 0.001 µM) was 98.3% and the viability, T/C (second compound 0.00316 µM, first compound 0.00316 µM) was 90.6%. The viability, T/C (second compound 0.00316 µM, first compound 0.01 µM) was 73.3%, the viability, T/C [1] was 34.9% and the viability, T/C [2] was 17.7%. It also gave a viability, T/C (second compound 0.01 µM, first compound 0.000316 µM) of 88.9%, a viability, T/C (second compound 0.01 µM, first compound 0.001 µM) of 89.2% and a viability, T/C (second compound 0.01 µM, first compound 0.00316 µM) of 81.8%. The viability, T/C (second compound 0.01 µM, first compound 0.01 µM) was 79.3%, the viability, T/C [3] was 32.1% and the viability, T/C [4] was 15.2%. The viability, T/C (second compound 0.0316 µM, first compound 0.000316 µM) was 83.8%, the viability, T/C (second compound 0.0316 µM, first compound 0.001 µM) was 74.4% and the viability, T/C (second compound 0.0316 µM, first compound 0.00316 µM) was 78.4%. It also gave a viability, T/C (second compound 0.0316 µM, first compound 0.01 µM) of 71.4%, a viability, T/C [5] of 27.1% and a viability, T/C [6] of 14.4%. The viability, T/C (second compound 0.1 µM, first compound 0.000316 µM) was 75.6%, the viability, T/C (second compound 0.1 µM, first compound 0.001 µM) was 78.5% and the viability, T/C (second compound 0.1 µM, first compound 0.00316 µM) was 73.9%. The viability, T/C (second compound 0.1 µM, first compound 0.01 µM) was 65.5%, the viability, T/C [7] was 24.7% and the viability, T/C [8] was 14.5%. It also gave a viability, T/C (second compound 0.316 µM, first compound 0.000316 µM) of 82.9%, a viability, T/C (second compound 0.316 µM, first compound 0.001 µM) of 70% and a viability, T/C (second compound 0.316 µM, first compound 0.00316 µM) of 70.9%. It also gave a viability, T/C (second compound 0.316 µM, first compound 0.01 µM) of 61.6%, a viability, T/C [9] of 25.5% and a viability, T/C [10] of 14.6%. It also gave a viability, T/C (second compound 1 µM, first compound 0.000316 µM) of 72.6%, a viability, T/C (second compound 1 µM, first compound 0.001 µM) of 77.8% and a viability, T/C (second compound 1 µM, first compound 0.00316 µM) of 84.1%. For the same compound, the viability, T/C (second compound 1 µM, first compound 0.01 µM) was 68.3%, the viability, T/C [11] was 25.2% and the viability, T/C [12] was 14.4%.
